The values that follow come from patent US9485972B2, “Truncated tau proteins” (Axon Neuroscience SE, priority 2002, dated 2016).

In data set [1] the test system is purified porcine brain tubulin. Put plainly: Microtubule assembly assay (MAA) with tau type IA and type IB. The following applies: tau 0.1 mg/ml, tubulin 1 mg/ml, 1 mM GTP, 37° C., 20 min. Format: biochemical. As for the experimental part:
The physiological function of healthy tau consists in stabilizing microtubules (MTs). This function can be measured by a microtubule assembly assay (MAA). In this examples, the MAA reactions were carried out using three types of tau molecules: normal healthy human tau, recombinant forms of tau type IA (SEQ ID NO: 1) and tau type IB (SEQ ID NO: 4). Normal human tau, tau type IA and type IB were assayed individually in separate reactions. Single preparations of tau at 0.1 mg/ml were mixed with purified porcine brain tubulin at a final concentration of 1 mg/ml and 1 mM GTP, all materials in polymerisation buffer (100 mM PIPES, pH 6.9, 1 mM MgSO4, 2 mM EGTA). Tau was added last to initiate the promotion of MT assembly. After gentle and rapid mixing, the samples were pipetted into quartz microcuvettes and equilibrated at 37° C. in a thermostatically controlled spectrophotometer (Beckman Coulter DU640). The turbidity was continuously monitored at 340 nm in 10 s intervals for a period of 20 min.

The subject of data set [2] is tubulin. Put plainly: Inhibitory effect of AD-brain derived and recombinant tau type IA on normal healthy tau in microtubule assembly assay. The data set is classed as biochemical. Conditions: 0.2 mg/ml type IA or IB, healthy tau 0.1 mg/ml, tubulin 1 mg/ml, preincubation 1 hr at 37° C., 340 nm, 5 min. The source says:
AD-brain extracts as well as recombinant molecules of tau type IA are capable to inhibit microtubule assembly promotion when using natural healthy tau isoforms. For these experiments healthy human tau was isolated from brains of age matched controls and tau type IA was isolated from brains of AD patients (see Example 6, FIG. 6, fraction #19). Recombinant tau type IA (SEQ ID NO: 1) and type IB (SEQ ID NO:4, negative control) were produced and purified as shown in Example 6. In these experiments, brain-derived healthy tau isoforms (0.1 mg/ml), AD-brain derived or recombinant type IA tau or type IB (0.2 mg/ml) were mixed with tubulin. Each combination was assayed separately. The test mixtures were incubated 1 hr at 37° C. in a water bath with gently shaking. To the mixture kept on ice was added GTP and/or normal tau (final concentration of tubulin is 1 mg/ml and GTP 1 mM) all reagencies in polymerisation buffer (100 mM PIPES, pH 6.9, 1 mM MgSO4, 2 mM EGTA). After gentle and rapid mixing, the samples were pipetted into quartz microcuvettes and equilibrated at 37° C. in a thermostatically controlled spectrophotometer (Beckman Coulter DU640). The turbidity changes were measured at 340 nm in 10 s intervals for a period of 5 min. […] Curve 1 (FIG. 12) represents microtubule assembly promoted by normal tau.

The next data set relates to Human tubulin. Put plainly: Inhibition of microtubule assembly by tau type IA and IB (tubulin preincubated, then normal human tau). The data set is classed as biochemical. The following applies: tubulin preincubated 1 hr at 37° C. with 0.2 mg/ml type IA or IB; normal human tau 0.1 mg/ml; 340 nm, 5 min. How it is done: Both tau type IA and IB molecules lack functional activity when applied in a the MT assembly assay (MAA). […] For inhibition of microtubule assembly, recombinant forms of tau type IA (SEQ ID NO:1) and type IB (SEQ ID NO:4) were used. The assembly-inhibition reactions were carried out separately using type IA and type IB proteins. Human tubulin (2 mg/ml) was mixed with either type IA molecules (0.2 mg/ml) or type IB molecules (0.2 mg/ml). The mixtures were incubated 1 hr at 37° C. with gently shaking. To the mixtures kept on ice normal human tau (0.1 mg/ml) and GTP (final concentration of tubulin in the mixture is 1 mg/ml and GTP 1 mM) were added in polymerization buffer (100 mM PIPES, pH 6.9, 1 mM MgSO4, 2 mM EGTA). After gentle and rapid mixing, the samples were pipetted into quartz microcuvettes and equilibrated at 37° C. in a thermostatically controlled spectrophotometer (Beckman Coulter DU640). The turbidity changes were measured at 340 nm in 10 sec intervals over a period of 5 min.

Data set [3] concerns neuroblastoma cells expressing tau type IIA. As to the kind of experiment: Oxidative stress (SIN-1) vulnerability, MTT reduction assay. Conditions: cells expressing the tau protein vs non-expressing cells, SIN-1 0-3.3 mM, 24 hours. Format: cell-based, human. The text has this:
In the present example, the oxidative decomposition of 3-morpholinosydnonimine (SIN-1) was used which generates superoxide anions and nitric oxide, which react and thereby form peroxynitrite. This very reactive radical can further oxidize mainly cellular membrane systems. Persons skilled in art will be able to also apply another sources of oxidative stress to neuroblastoma cells in culture and will be able to obtain the same effect here described by the use on SIN-1.
The effect of vulnerability was tested as follows: • 1. SIN-1 was applied at various concentrations (0-3.32 mM) to human neuronal cell lines expressing tau type IIA protein SEQ ID NO 15 and SEQ ID NO 11, respectively. • 2. […] The EC50 values were compared for neuroblastoma cell lines in the presence or absence of diseased tau type IIA protein expression and the statistical significance of EC50 value differences was assessed by t-test. […]
After five day, SIN-1 was added in concentrations ranging from 0 to 3.3 mM and the plates were incubated for 24 hours. […] The absorbance at 540 nm with background correction at 690 nm was measured on ELISA reader and the background-subtracted values were used for EC50 calculation, as it is well known in the art. […]

Data set [4] concerns tubulin. Put plainly: Microtubule assembly with tau type IIA and IIB. Format: biochemical. Conditions: tau 0.1 mg/ml, tubulin 1 mg/ml, GTP 1 mM, 37° C., 340 nm, 5 min. How it is done:
The microtubule assembly reactions were carried out using three types of molecules: natural healthy human tau isoforms, Alz. tau type IIA (SEQ ID NO: 12) and tau type JIB (SEQ ID NO: 19). Three separate reactions were performed, each with single preparation of respective tau (healthy tau, recombinant tau type IIA or type IIB). Individual tau preparations at 0.1 mg/ml were mixed with tubulin and GTP (final concentration of tubulin is 1 mg/ml and GTP 1 mM), all reagencies in polymerisation buffer (100 mM PIPES, pH 6.9, 1 mM MgSO4, 2 mM EGTA). After gentle and rapid mixing, the samples were pipetted into quartz microcuvettes and equilibrated at 37° C. in a thermostatically controlled spectrophotometer (Beckman Coulter DU640). The turbidity changes were measured at 340 nm in 10 s intervals for a period of 5 min.

A further data set relates to microtubules. Put plainly: Electron microscopy of microtubules formed with tau. The data set is classed as biochemical. The source says: However, Alzheimer tau type II produces pathological microtubules with typical pattern (see FIG. 28C).
For another data set, the system named is tau monoclonal antibody. Put plainly: Competitive ELISA, affinity of monoclonal antibody to tau type IA and deletion mutants. Format: binding. Conditions: read-out: apparent affinity (antigen concentration needed for 50% competition with prototype tau type IA). As for the experimental part:
FIG. 5: Affinity of monoclonal antibody to diseased tau type IA protein and its deletion mutants. Apparent affinity of monoclonal antibody to diseased tau type IA protein and its deletion mutants. In the first column are listed: the ‘prototype’ tau type IA protein (SEQ ID NO 1) and respective deletion mutants. In the middle column are indicated epitopes of the present invention. Apparent affinities stated in the last column were measured by competitive ELISA, and shown as the concentrations of corresponding antigen needed for 50% competition with the prototype tau type IA protein.
The significance of the ‘conformational region’ in tau type IA (segment A) or its parts was determined by sequential deletion either of whole conformation region (segment A) or its individual parts called epitopes and designated A1-A6. Since the conformation of type IA molecules strongly correlates with their function, the contribution of each epitope (A1-A6) to the overall conformation of the ‘segment A’ was measured on the basis of its reactivity when using a tau monoclonal antibody (FIG. 5).
For orientation: In an ELISA, binding on a coated surface is turned into a signal by an enzyme label.

“SEQ ID NO: 4: type IB double truncated tau, 239-326, R4”: in data set [1], the “microtubule assembly promotion (turbidity at 340 nm)” value (“microtubule assembly promotion” for short) is recorded as “lacked any MT assembly promotion”. For the same substance, the “inhibition of the capacity of normal tau to promote microtubule assembly” value in the data set on tubulin [2] is “not able to inhibit”. For the same substance, the “inhibition of microtubule assembly promoted by normal human tau” value in the data set with Human tubulin is listed as “does not inhibit the microtubule assembly capacity of normal tau”. For the substance “normal healthy tau: tau protein derived from healthy brains [reference compound]”, the “microtubule assembly promotion” value in data set [1] is given as “microtubule assembly promotion capacity”. Turning to “SEQ ID NO: 12: type IIA double truncated tau, 93-333, R4”, the “decrease of resistance of neuroblastoma cells to oxidative stress (EC50 of SIN-1)” value in data set [3] turned out to be 50%. Moreover, the “promotion of microtubule assembly compared to healthy tau” value in the data set with tubulin [4] was “extremely high (threefold) promotion”. In the case of “SEQ ID NO: 18: type IIA double truncated tau, 69-332, R3”, the “decrease of resistance of neuroblastoma cells to oxidative stress (EC50 of SIN-1)” value in data set [3] was 50%. Take “SEQ ID NO: 19: type IIB double truncated tau, 6-378, R4”: the “promotion of microtubule assembly compared to healthy tau” value in the data set with tubulin [4] was “promote microtubule assembly only to the level seen with healthy tau”. For the substance “tau 43: shortest four repeat tau isoform, 383 amino acids, missing exons 2 and 3”, the “type of microtubules formed (electron microscopy)” value with microtubules is “forms typical microtubules”.

In the case of “SEQ ID NO: 1: type IA N- and C-terminally double truncated tau, residues 239-333 of four repeat tau43”, the “microtubule assembly promotion” value in data set [1] is “lacked any MT assembly promotion”. In the data set with tubulin [2], the “inhibition of the capacity of normal tau to promote microtubule assembly” value is given as “inhibit the capacity of normal tau to promote microtubule assembly”. Further, in the data set on tau monoclonal antibody, the IC50 came out at 0.01 µM. Moreover, the “inhibition of microtubule assembly promoted by normal human tau” value in the data set on Human tubulin is “abolished microtubule assembly”.
